Data on 68 sequences can be found in the supplement of paper PMC11208160.
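Note: IS621 bridge recombinase in Escherichia coli cells against a fixed T5 target plasmid.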

A short description of the data set: recombinant UMI read abundance after kanamycin selection (control-corrected) (log10(CPM+1)); higher = more efficient recombination; extreme values may be limits of the assay; sequences stand for … in AGTGCAGAGAAAATCGGCCAGTTTTCTCTGCCTGCAGTCCGCATGCCGTGGGACCCCTTGGGTTCTAACCTGTTGCCTAGATTTATGCAGCGGACTGCCTTTCTCCCAAAGTGATAAACCGG…AGGTTGGTTTCACT; site = the 11-nt donor. The method, boiled down:
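For the IS621 bridge recombinase, a pooled Escherichia coli screen tested donor and donor-binding-loop pairs. Cells received the pair library together with a target plasmid encoding a fixed target and T7-inducible recombinase, then went onto IPTG (0.07 mM) plus kanamycin or unselected plates in duplicate. After PCR across the donor–target junction and sequencing, recombinant UMI counts were normalized to CPM, averaged, and scaled by control-derived factors. Each value is given as log10(CPM+1).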
Regarding “CAGTCCTCATGGACCGGTTTTCCCGGTAATCCGTATTTGAA (site CAGTCCTCTTT)”, the “recombinant UMI read abundance (log10)” value was found to be 1.96.

With “CAGTCGACATGGACCGGTTTTCCCGGTAATCCGTATTTGAG (site CAGTCGACTCA)”, the “recombinant UMI read abundance (log10)” value turned out to be 0.00421. In the case of “CAGTCGACATGGACCGGTTTTCCCGGTAATCCGTATTTGAG (site CAGTCGACTCC)” it was 0.0115. The value for “CAGTCGACATGGACCGGTTTTCCCGGTAATCCGTATTTGAG (site CAGTCGACTCG)” was 0.00367. In the case of “CAGTCGACATGGACCGGTTTTCCCGGTAATCCGTATTTGAG (site CAGTCGACTCT)” it was 0.855; in that of “CAGTCGGCATGGACCGGTTTTCCCGGTAATCCGTATTTGGG (site CAGTCGACTCC)”, 0.027. For “CAGTCGGCATGGACCGGTTTTCCCGGTAATCCGTATTTGGG (site CAGTCGCCTCC)”, the “recombinant UMI read abundance (log10)” value is 0.0091. The value for “CAGTCGGCATGGACCGGTTTTCCCGGTAATCCGTATTTGGG (site CAGTCGGCTCC)” was 0.157; that for “CAGTCGGCATGGACCGGTTTTCCCGGTAATCCGTATTTGGG (site CAGTCGTCTCC)” was 0.0153; that for “CAGTCGGCATGGACCGGTTTTCCCGGTAATCCGTATTTGGT (site CAGTCGGCTAC)” was 0.814.

Take “CAGTGTACATGGACCGGTTTTCCCGGTAATCCGTATTTGCA (site CAGTGTACTTG)”: the “recombinant UMI read abundance (log10)” value came out at 2.48. The value for “CAGTTACCATGGACCGGTTTTCCCGGTAATCCGTATTTGCC (site CAGTTACCTGG)” was 0; that for “CAGTTCTCATGGACCGGTTTTCCCGGTAATCCGTATTTGGC (site CAGTTCTCTGC)” was 3.27. In the case of “CAGTTGCCATGGACCGGTTTTCCCGGTAATCCGTATTTGGT (site CAGTTGCCTAC)” it was 0.0159.

For the sequence “CAGTTGTCATGGACCGGTTTTCCCGGTAATCCGTATTTGCG (site CAGTTGTCTCG)”, the “recombinant UMI read abundance (log10)” value was determined as 3.14. The value for “CATAACCCATGGACCGGTTTTCCCGGTAATCCGTATTTGAT (site CATAACCCTAT)” was 1.19; that for “CATAATCCATGGACCGGTTTTCCCGGTAATCCGTATTTGTT (site CATAATCCTAA)” was 0.529. The value for “CATAATCCATGGACCGGTTTTCCCGGTAATCCGTATTTGTT (site CGGAATCCTAA)” was 0.00373. The value for “CATAGCACATGGACCGGTTTTCCCGGTAATCCGTATTTGTA (site CATAGCACTTA)” was 1.96; that for “CATATCCCATGGACCGGTTTTCCCGGTAATCCGTATTTGAC (site CATATCCCTGT)” was 0.73. For the sequence “CATCACACATGGACCGGTTTTCCCGGTAATCCGTATTTGGG (site CATCACACTCC)”, the “recombinant UMI read abundance (log10)” value is 0.0249.

With “CATCGCCCATGGACCGGTTTTCCCGGTAATCCGTATTTGGT (site CATCGCCCTAC)”, the “recombinant UMI read abundance (log10)” value was determined as 0.296.

With “CATCTGACATGGACCGGTTTTCCCGGTAATCCGTATTTGCG (site CATCTGACTCG)”, the “recombinant UMI read abundance (log10)” value was determined as 1.45.

In the case of “CATCTGTCATGGACCGGTTTTCCCGGTAATCCGTATTTGAC (site CATCTGTCTGT)”, the “recombinant UMI read abundance (log10)” value is 0. The value for “CATCTTGCATGGACCGGTTTTCCCGGTAATCCGTATTTGGT (site CATCTTGCTAC)” was 0.825; that for “CATGACTCATGGACCGGTTTTCCCGGTAATCCGTATTTGTT (site CATGACTCTAA)” was 2.08.

For “CATGCCTCATGGACCGGTTTTCCCGGTAATCCGTATTTGTG (site CATGCCTCTCA)”, the “recombinant UMI read abundance (log10)” value came to 1.43. In the case of “CATGGCTCATGGACCGGTTTTCCCGGTAATCCGTATTTGCG (site CATGGCTCTCG)” it was 2.15; in that of “CATGTAACATGGACCGGTTTTCCCGGTAATCCGTATTTGCT (site AATGTAACTAG)”, 0.624; in that of “CATGTAACATGGACCGGTTTTCCCGGTAATCCGTATTTGCT (site CATGTAACTAG)”, 2.28. The value for “CATGTAACATGGACCGGTTTTCCCGGTAATCCGTATTTGCT (site GATGTAACTAG)” was 0.28; that for “CATGTAACATGGACCGGTTTTCCCGGTAATCCGTATTTGCT (site TATGTAACTAG)” was 0.869. The value for “CATGTGTCATGGACCGGTTTTCCCGGTAATCCGTATTTGAC (site AATGTGTCTGT)” was 0. As to “CATGTGTCATGGACCGGTTTTCCCGGTAATCCGTATTTGAC (site CATGTGTCTGT)”, the “recombinant UMI read abundance (log10)” value worked out at 0.602. The value for “CATGTGTCATGGACCGGTTTTCCCGGTAATCCGTATTTGAC (site GATGTGTCTGT)” was 0; that for “CATGTGTCATGGACCGGTTTTCCCGGTAATCCGTATTTGAC (site TATGTGTCTGT)” was 0.00981; that for “CATGTTCCATGGACCGGTTTTCCCGGTAATCCGTATTTGTG (site CATGTTCCTCA)” was 0.0131.

For “CATTAGTCATGGACCGGTTTTCCCGGTAATCCGTATTTGTT (site CATTAGTCTAA)”, the “recombinant UMI read abundance (log10)” value was determined as 2.03. In the case of “CATTCAACATGGACCGGTTTTCCCGGTAATCCGTATTTGCC (site CATTCAACTGG)” it was 0.426; in that of “CATTCCTCATGGACCGGTTTTCCCGGTAATCCGTATTTGCC (site CAATCCTCTGG)”, 1.59; in that of “CATTCCTCATGGACCGGTTTTCCCGGTAATCCGTATTTGCC (site CACTCCTCTGG)”, 1.09. The value for “CATTCCTCATGGACCGGTTTTCCCGGTAATCCGTATTTGCC (site CAGTCCTCTGG)” was 0. In the case of “CATTCCTCATGGACCGGTTTTCCCGGTAATCCGTATTTGCC (site CATTCCTCTGG)” it was 1.47; in that of “CATTCGACATGGACCGGTTTTCCCGGTAATCCGTATTTGCG (site CATTCGACTCG)”, 0.32; in that of “CATTGACCATGGACCGGTTTTCCCGGTAATCCGTATTTGAG (site CATTGACCTCT)”, 0.0215. Regarding “CATTGCACATGGACCGGTTTTCCCGGTAATCCGTATTTGTA (site CATTGCACTTA)”, the “recombinant UMI read abundance (log10)” value turned out to be 0.726. The value for “CATTGGACATGGACCGGTTTTCCCGGTAATCCGTATTTGCC (site CATTGGACTGG)” was 1.73; that for “CATTTATCATGGACCGGTTTTCCCGGTAATCCGTATTTGCA (site GCCCGTCCTAC)” was 0.031. Consider “CATTTATCATGGACCGGTTTTCCCGGTAATCCGTATTTGGC (site CATTTATCTGC)”, for which the “recombinant UMI read abundance (log10)” value stood at 1.72. The value for “CATTTCCCATGGACCGGTTTTCCCGGTAATCCGTATTTGCT (site CAATTCCCTAG)” was 0.464; that for “CATTTCCCATGGACCGGTTTTCCCGGTAATCCGTATTTGCT (site CACTTCCCTAG)” was 0.691; that for “CATTTCCCATGGACCGGTTTTCCCGGTAATCCGTATTTGCT (site CAGTTCCCTAG)” was 0.0164. The value for “CATTTCCCATGGACCGGTTTTCCCGGTAATCCGTATTTGCT (site CATTTCCCTAG)” was 0.788; that for “CATTTGGCATGGACCGGTTTTCCCGGTAATCCGTATTTGTG (site AATTTGGCTCA)” was 0.0432; that for “CATTTGGCATGGACCGGTTTTCCCGGTAATCCGTATTTGTG (site CATTTGGCTCA)” was 0.552. As for “CATTTGGCATGGACCGGTTTTCCCGGTAATCCGTATTTGTG (site GATTTGGCTCA)”, the “recombinant UMI read abundance (log10)” value is 0.00627.

In the case of “CATTTGGCATGGACCGGTTTTCCCGGTAATCCGTATTTGTG (site TATTTGGCTCA)”, the “recombinant UMI read abundance (log10)” value was 0.106. Consider “CCAAACACATGGACCGGTTTTCCCGGTAATCCGTATTTGAT (site CCAAACACTAT)”, for which the “recombinant UMI read abundance (log10)” value is 1.8. The value for “CCAAAGGCATGGACCGGTTTTCCCGGTAATCCGTATTTGGC (site CCAAAGGCTGC)” was 0; that for “CCAAATACATGGACCGGTTTTCCCGGTAATCCGTATTTGGC (site CCAAATACTGC)” was 0; that for “CCAAATACATGGACCGGTTTTCCCGGTAATCCGTATTTGGC (site CCCAATACTGC)” was 0. The value for “CCAAATACATGGACCGGTTTTCCCGGTAATCCGTATTTGGC (site CCGAATACTGC)” was 0; that for “CCAAATACATGGACCGGTTTTCCCGGTAATCCGTATTTGGC (site CCTAATACTGC)” was 0.

Take “CCAAATCCATGGACCGGTTTTCCCGGTAATCCGTATTTGTT (site CCAAATCCTAA)”: the “recombinant UMI read abundance (log10)” value turned out to be 0. The value for “CCAAATCCATGGACCGGTTTTCCCGGTAATCCGTATTTGTT (site CGGAATCCTAA)” was 0; that for “CCAACTTCATGGACCGGTTTTCCCGGTAATCCGTATTTGGA (site CCAACTTCTTC)” was 0. The value for “CCAAGCACATGGACCGGTTTTCCCGGTAATCCGTATTTGCT (site CCAAGCACTAG)” was 0.32; that for “CCAAGGACATGGACCGGTTTTCCCGGTAATCCGTATTTGTT (site CCAAGGACTAA)” was 0.865.
